According to US6750244B2, “Compounds active at a novel site on receptor-operated calcium channels useful for treatment of neurological disorders and diseases” (NPS Pharmaceuticals, Inc., priority 1993, dated 2004):
Like-named read-outs stand apart in the source and are kept apart here.

Columns and labels:
[1] = system: muscle relaxation and anesthesia; conditions: intrathecal administration; cited from earlier work
[2] = system: behavior; assay: Behavioral effects in conscious beagle dogs
[3] = system: T1, L-type calcium channel; assay: Inhibition of KCl depolarization-induced increases in intracellular calcium in cultured rat cerebellar granule cells; assay type: cell-based; conditions: cultured rat cerebellar granule cells; read-out: L-type calcium channel: estimated IC50, KCl depolarization-induced increases in intracellular calcium
T1 construct: L-type calcium channel: estimated IC50, KCl depolarization-induced increases in intracellular calcium; other: cultured
From the text: The ability of arylalkylamines to inhibit dihydropyridine-sensitive Ca^2+ channels was examined in cerebellar granule cells and a rat aortic smooth muscle cell line, A7r5 cells.

[4] = system: formalin-induced flinching; assay type: in vivo, Sprague-Dawley rats; conditions: 10 mg/kg i.p.
[5] = system: acetic acid-induced writhing; assay type: in vivo, mice; conditions: 10 mg/kg i.p.
[6] = system: maximal electroshock-induced seizures; assay: Maximal electroshock-induced seizures in rats; assay type: in vivo; conditions: Rattus norvegicus, read-out: ED50, maximal electroshock-induced seizures
[7] = system: PCP-like discriminative stimulus effects; assay type: in vivo, rats; conditions: i.p., rats
From the text: In this assay, rats who have been trained to lever press for food reinforcement must select which of two levers in their cages is correct. The only stimulus they hive for selecting the correct lever is their ability to detect whether they received a PCP or vehicle injection After about two months of training, rats become very good at discriminating PCP from vehicle injections and can then be tested with other drugs to determine if they are discriminated as PCP. When tested in this procedure, other drugs which are known to produce a PCP-like intoxication substitute for PCP. These drugs include various PCP analogs such as ketamine and the noncompetitive NMDA receptor antagonist, MK-801.

[8] = system: NMDA receptor; conditions: rat hippocampal slices
Experimental: Glutamate-mediated transmission at synapses of Schaffer collateral fibers and CA1 pyramidal cells was measured in slices of rat brain containing the hippocampus. This assay measures electrophysiologically the postsynaptic depolarization caused by the presynaptic release of glutamate, and can readily distinguish synaptic transmission mediated by NMDA or AMPA receptors.

[9] = system: mean arterial pressure, heart rate, ECG; assay: Cardiovascular activity in conscious beagle dogs
[10] = Motor toxicity (TD50) in rats; conditions: rat, in vivo, po
[11] = system: mean arterial blood pressure
[12] = system: behavior; assay: Behavioral effects in conscious male NMRI mice
[13] = system: temporary focal ischemia; assay: Temporary focal cerebral ischemia (middle cerebral artery occlusion, suture withdrawn after 2 hr); assay type: in vivo, rat; conditions: two doses of 1 mg/kg i.p.
Experimental: In a fourth model of focal cerebral ischemia in the rat, the middle cerebral artery was temporarily occluded by passing a small piece of suture thread through the carotid artery to the region of the middle cerebral artery. The suture thread was withdrawn after an ischemic period of 2 hr. Core body temperature was maintained at 37° C. […]

[14] = system: focal ischemia; assay: Photothrombotic (Rose Bengal) model of focal cerebral ischemia; assay type: in vivo, rat; conditions: 10 mg/kg i.p. at 15 min, 3 hr, and again 6 hr post-occlusion
From the text: In a third model of focal cerebral ischemia in the rat, an ischemic infarct was produced by a photothrombotic method using the dye Rose Bengal.

[15] = system: thermal nociception; assay type: in vivo, rats; conditions: 25 mg/kg i.p.
Experimental: In these experiments, a 52° C. hot plate was used as the nociceptive stimulus.

[16] = target: T2, norepinephrine uptake site (Rattus norvegicus, UniProt Q63380); assay: Norepinephrine uptake binding assay: [3H]desipramine binding to rat cortical membranes
T2 construct: from tissue; host or cells: rat cortical membranes (per the assay title)

[17] = in vivo; conditions: mouse, in vivo, ip
Experimental: (§1) In this assay, Frings and CF1 mice were injected with test compound and placed on a knurled rod which rotated at a speed of 6 rpm. The ability of the mice to maintain equilibrium for long periods of time was determined; those mice that were unable to maintain equilibrium on the rotorod for 1 min in each of 3 trials were considered impaired.

[18] = system: motor performance; assay: Acute motor impairment (rotorod) in mice; conditions: for TD50 (motor impairment): Frings mice
Experimental: as §1

[19] = target: NMDA receptor-ionophore complex (site labeled by [3H]MK-801); assay: Inhibition of [3H]MK-801 binding in rat cortical/hippocampal washed membrane preparations; conditions: read-out: IC50 (μM) vs. [3H]MK-801; rat cortical/hippocampal washed membranes
[20] = system: NMDA receptor; assay: Inhibition of NMDA/glycine-induced increases in intracellular calcium in cultured rat cerebellar granule cells (RCGC); assay type: cell-based; conditions: NMDA/glycine-induced increases in intracellular calcium, cultured rat cerebellar granule cells; read-out: IC50 (μM) vs. NMDA
[21] = system: sound-induced seizures; assay: Sound-induced seizures in Frings mice (reflex epilepsy); assay type: in vivo; conditions: Mus musculus, Frings mice
[22] = system: seizure threshold; assay: i.v. Metrazol test (seizure threshold) in mice; assay type: in vivo; conditions: 10 mg/kg i.p.
[23] = system: induction of LTP; parameters: species or system rat; conditions: at 100 μM
[24] = system: permanent focal ischemia; assay: Permanent focal cerebral ischemia (middle cerebral artery occlusion, suture); assay type: in vivo, rat; conditions: 1 mg/kg i.p. at 30 min and again 4 hr post-occlusion
Experimental: In the second study of focal cerebral ischemia in the rat, the middle cerebral artery was permanently occluded by passing a small piece of suture thread through the carotid artery to the region of the middle cerebral artery. Core body temperature was maintained at 37° C. Compound 4, 10 mg/kg i.p. administered immediately after the onset of the ischemic event, produced a statistically significant reduction in the volume of the brain infarct (20%) recorded 24 hr later.

[25] = target: T3, dopamine uptake site (Cavia porcellus, UniProt H0WCX4); assay: Dopamine uptake binding assay: [3H]WIN-35,428 binding to guinea pig striatal membranes
T3 construct: from tissue; host or cells: guinea pig striatal membranes (per the assay title)

[26] = system: behavior; assay: Behavioral effects in conscious male Wistar rats
[27] = system: maximal electroshock-induced seizures; assay: Maximal electroshock-induced seizures in mice; assay type: in vivo; conditions: mice; for ED50: Mus musculus, ip
[28] = system: delayed rectifier potassium channel; assay: Inhibition of delayed rectifier potassium channel in cultured N1E-115 neuroblastoma cells; assay type: cell-based; conditions: read-out: Delayed rectifier potassium channel: estimated IC50
[29] = target: T4, serotonin uptake site (Rattus norvegicus, UniProt P31652); assay: Serotonin uptake binding assay: [3H]citalopram binding to rat forebrain membranes
T4 construct: from tissue; host or cells: rat forebrain membranes (per the assay title)

[30] = system: central muscarinic cholinergic receptor; assay type: binding, rat
[31] = system: thermal nociception; assay type: in vivo, rats; conditions: 25 mg/kg i.p.; remark: listed apart in the source
Experimental: In this standard assay, the thermal nociceptive stimulus was 52° C. warm water with the latency to tail flick or withdrawal taken as the endpoint.

[32] = in vivo; conditions: rat, po
[33] = system: focal ischemic stroke; assay: Rat model of focal ischemic stroke (vessel occlusion); assay type: in vivo, rats; conditions: i.p. 2 mg/kg 30 min prior to vessel occlusion and 2 mg/kg 3 hr post-occlusion
[34] = 3 mg/kg i.v. (60 sec bolus injection)
[35] = 10 mg/kg i.v. (60 sec bolus injection)

T2 sequence (Q63380 1-617): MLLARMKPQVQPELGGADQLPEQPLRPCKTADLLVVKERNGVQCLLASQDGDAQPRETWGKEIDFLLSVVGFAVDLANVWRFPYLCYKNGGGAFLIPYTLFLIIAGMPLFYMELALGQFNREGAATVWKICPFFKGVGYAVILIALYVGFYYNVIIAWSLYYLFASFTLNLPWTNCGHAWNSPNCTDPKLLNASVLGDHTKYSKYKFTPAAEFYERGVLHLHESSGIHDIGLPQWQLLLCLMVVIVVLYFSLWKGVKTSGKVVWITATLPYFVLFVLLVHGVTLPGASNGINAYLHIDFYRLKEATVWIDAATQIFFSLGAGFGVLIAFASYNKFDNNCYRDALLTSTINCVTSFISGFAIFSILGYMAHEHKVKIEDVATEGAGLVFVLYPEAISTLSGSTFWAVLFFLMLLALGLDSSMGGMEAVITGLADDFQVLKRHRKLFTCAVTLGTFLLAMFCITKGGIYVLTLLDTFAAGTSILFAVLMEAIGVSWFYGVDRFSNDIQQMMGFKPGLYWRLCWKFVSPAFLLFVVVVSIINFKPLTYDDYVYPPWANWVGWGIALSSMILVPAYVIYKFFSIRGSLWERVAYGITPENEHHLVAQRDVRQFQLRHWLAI
T4 sequence (P31652 whole entry): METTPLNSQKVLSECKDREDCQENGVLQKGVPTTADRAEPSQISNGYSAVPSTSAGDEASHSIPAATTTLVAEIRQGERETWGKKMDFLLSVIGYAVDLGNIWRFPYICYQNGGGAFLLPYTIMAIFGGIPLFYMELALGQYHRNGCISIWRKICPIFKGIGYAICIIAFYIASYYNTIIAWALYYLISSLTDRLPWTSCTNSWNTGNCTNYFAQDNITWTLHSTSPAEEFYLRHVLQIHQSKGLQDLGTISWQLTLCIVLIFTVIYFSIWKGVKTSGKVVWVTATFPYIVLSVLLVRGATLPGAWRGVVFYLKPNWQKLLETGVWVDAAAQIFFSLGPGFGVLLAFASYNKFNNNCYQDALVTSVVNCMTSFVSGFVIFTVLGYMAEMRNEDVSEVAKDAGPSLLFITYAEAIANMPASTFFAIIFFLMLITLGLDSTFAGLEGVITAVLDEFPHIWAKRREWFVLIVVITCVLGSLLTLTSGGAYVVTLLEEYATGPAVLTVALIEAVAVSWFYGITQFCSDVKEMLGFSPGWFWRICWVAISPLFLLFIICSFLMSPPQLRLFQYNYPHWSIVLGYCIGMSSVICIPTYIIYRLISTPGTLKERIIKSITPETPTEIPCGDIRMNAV
T3 sequence (H0WCX4 1-619): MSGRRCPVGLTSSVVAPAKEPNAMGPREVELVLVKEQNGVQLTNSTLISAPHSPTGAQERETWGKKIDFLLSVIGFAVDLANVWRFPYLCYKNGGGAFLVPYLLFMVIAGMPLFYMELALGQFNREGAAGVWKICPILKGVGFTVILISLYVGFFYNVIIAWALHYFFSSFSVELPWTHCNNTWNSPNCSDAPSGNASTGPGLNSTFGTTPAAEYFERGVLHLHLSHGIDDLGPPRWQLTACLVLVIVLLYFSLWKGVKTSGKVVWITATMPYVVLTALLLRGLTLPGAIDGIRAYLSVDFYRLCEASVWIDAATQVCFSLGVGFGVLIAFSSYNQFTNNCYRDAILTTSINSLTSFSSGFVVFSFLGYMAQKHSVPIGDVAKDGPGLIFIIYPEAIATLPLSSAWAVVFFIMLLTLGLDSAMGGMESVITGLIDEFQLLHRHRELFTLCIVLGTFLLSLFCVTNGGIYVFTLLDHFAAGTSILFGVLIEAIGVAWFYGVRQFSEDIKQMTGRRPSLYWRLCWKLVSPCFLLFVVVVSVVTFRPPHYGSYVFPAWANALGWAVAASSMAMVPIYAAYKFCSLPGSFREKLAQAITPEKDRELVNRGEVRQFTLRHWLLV

NCCCNCCCCNCCCNCCCN(O)CCCNC(=O)Cc1c[nH]c2ccccc12 [agatoxin-489]
muscle relaxation and anesthesia [1]: not

NCCC(c1cccc(F)c1)c1cccc(F)c1 [Compound 20, 3,3-bis(3-fluorophenyl)-1-propylamine]
behavioral effects [2, 34]: increased motor activity, agitation and anxiousness, slight tremors, licking of the mouth, whining, and urination
behavioral effects [2, 35]: dilated pupils, whole body tremors, incoordination, licking of the mouth, salivation, panting, rapid blinking of the eyes, whining, anxiousness, seizures, and death
IC50 [3]: 2200 nM
analgesic activity, rat formalin test [4]: significant analgesic activity, not blocked by the opiate receptor antagonist naloxone
analgesic activity against acetic acid-induced abdominal writhing [5]: significant analgesic activity, not blocked by naloxone
ED50 ([6]; po): 33.6 mg/kg
no generalization to PCP at doses up to the behaviorally active dose of [7]: ≤ 10 mg/kg
Suppression of NMDA Receptor-Mediated Synaptic Transmission (concentration which suppresses) [8]: 30 to 300 µM
cardiovascular activity ([9]; 0.3 mg/kg i.v. (60 sec bolus injection)): no significant cardiovascular activity
cardiovascular activity ([9]; 1 mg/kg i.v. (60 sec bolus injection)): no significant cardiovascular activity
heart rate [9, 34]: transient increases in mean arterial pressure and heart rate
mean arterial pressure [9, 34]: transient increases in mean arterial pressure and heart rate
heart rate [9, 35]: larger magnitude and longer duration effects
mean arterial pressure [9, 35]: larger magnitude and longer duration effects
TD50 [10]: 55.9 mg/kg
no significant cardiovascular activity in anesthetized rats at doses up to ([11]; i.p.): ≤ 10 mg/kg
behavioral effects ([12]; 8 mg/kg i.p.): excitation and increased reactivity to touch
behavioral effects ([12]; 64 mg/kg i.p.): convulsions and death
behavioral effects ([12]; 2 and 4 mg/kg i.p.): no behavioral effects
behavioral effects ([12]; 16 and 32 mg/kg i.p.): excitation, Straub tail, tremor, stereotypies, hypothermia, and mydriasis
behavioral effects ([12]; 128 and 256 mg/kg i.p.): convulsions and death
reduction in the infarct volume ([13]; 2 hr after occlusion (time of reperfusion) and 6 hr later): 43%
reduction in the infarct volume ([13]; immediately after middle cerebral artery occlusion and 6 hr later): 51%
reduction in the infarct volume [14]: 50%
analgesic activity, rat 52° C. hot plate test [15]: no significant analgesic activity
Monoamine uptake binding assays: norepinephrine uptake binding assay, percent block ([16]; at 0.1 μM): 5% at
Monoamine uptake binding assays: norepinephrine uptake binding assay, percent block ([16]; at 10 μM): 0.1^g58% at
TD50 [17]: 20.6 mg/kg
TD50 (motor impairment) ([18]; i.p.): 19.9 mg/kg
TD50 (motor impairment) ([18]; oral): 21.8 mg/kg
motor impairment ([18]; mice, 30 mg/kg p.o.): motor impairment
IC50 [19]: 0.252 µM
IC50 [20]: 0.07 µM
ED50 ([21]; ip): 2.1 mg/kg
ED50 ([21]; oral): 9.7 mg/kg
seizure threshold, i.v. Metrazol test [22]: an increase in seizure threshold
LTP Assay (block of the induction of LTP) [23]: block at 100
reduction in the infarct volume [24]: 24%
Monoamine uptake binding assays: dopamine uptake binding assay, percent block ([25]; at 0.1 μM): 6% at
Monoamine uptake binding assays: dopamine uptake binding assay, percent block ([25]; at 10 μM): 0.1^f81% at
behavioral effects ([26]; 2 mg/kg i.v.): no behavioral effects
behavioral effects ([26]; 32 mg/kg i.v.): Straub tail, convulsions, and death
behavioral effects ([26]; doses ranging from 4 to 16 mg/kg i.v.): excitation, stereotypies, increased reactivity to touch, increased muscle tone, and tremor
ED50 [27]: 20.1 mg/kg
no significant anticonvulsant activity against maximal electroshock-induced seizures at doses up to ([27]; oral (p.o.)): up to 30 mg/kg
IC50 [28]: 1000 to 10000 nM
Monoamine uptake binding assays: serotonin uptake binding assay, percent block ([29]; at 0.1 μM): 10^g28% at
Monoamine uptake binding assays: serotonin uptake binding assay, percent block ([29]; at 10 μM): 0.1^h94% at
Central muscarinic cholinergic receptor: percent block of [3H]QNB binding ([30]; at 0.1 μM): 8% at
Central muscarinic cholinergic receptor: percent block of [3H]QNB binding ([30]; at 10 μM): 0.190% at
analgesic activity, rat 48° C. tail flick test [31]: no significant analgesic activity

COc1cccc(C(CCN)c2cccc(F)c2)c1 (stereo not drawn) [Compound 25, 3-(3-fluorophenyl)-3-(3-methoxyphenyl)-1-propylamine]
ED50 ([6]; rats, oral): 46.4 mg/kg
TD50 [17]: 32.2 mg/kg
IC50 [19]: 0.871 µM
IC50 [20]: 0.279 µM
TD50 [32]: 163 to 326 mg/kg
ED50 [27]: 12.5 mg/kg

COc1ccccc1C(CCN)c1cccc(F)c1 (stereo not drawn) [Compound 24, 3-(3-fluorophenyl)-3-(2-methoxyphenyl)-1-propylamine]
neuroprotectant activity in a rat model of focal ischemic stroke [33]: no significant neuroprotectant activity
ED50 ([6]; rats, oral): 46 mg/kg
no significant cardiovascular activity in anesthetized rats at doses up to ([11]; i.v.): up to 10 mg/kg
TD50 ([17]; Frings): 16 mg/kg
IC50 [19]: 0.591 µM
IC50 [20]: 0.206 µM
ED50 ([21]; ip): 5 mg/kg
TD50 [32]: 51 mg/kg
